Assay results from publication PMC5578373, “Inhibitory Kappa B Kinase α (IKKα) Inhibitors That Recapitulate Their Selectivity in Cells against Isoform-Related Biomarkers” (Journal of Medicinal Chemistry, 2017).
Entries after “also recorded” stand apart in the source; their conditions may differ. Read-outs that look alike come from different tables or passages of the source.

Legend:
[1] = tested on: IKKβ-dependent IκBα degradation in U2OS cells; test: TNFα-induced IκBα degradation in U2OS cells, Western blot; type: cell-based, human; settings: highest concentration 100 μM, TNF-α (10 ng/mL) 30 min
Procedure: (§1) Two IKKβ-dependent readouts were selected to assess selectivity over IKKβ. First, TNFα stimulates IκBα degradation through activation of IKKβ and if IKKβ is inhibited, then a band corresponding to the IκBα protein should be evident by Western analysis. Second, IKKβ phosphorylates p65 on Ser536, which can also be assessed by Western blot analysis. Only at the highest concentration (100 μM) of 48 was IκBα degradation and p65 (Ser536) phosphorylation inhibited (Figure 9b). Even at this high concentration, these effects were not apparent following pretreatment with 47 (Figure 10b).
(§2) Figure 9 Effect of compound 48 on (a) FCS-stimulated noncanonical and (b) TNF-α-induced canonical NF-kB activation in U2OS cells. […] Whole cell lysate were prepared, separated by SDS-PAGE, and assessed for (a) inhibition of p100 phosphorylation (Ser866/870) and (b) IkB-α and p-p65 (Ser536) status. […]
as §2, with “10” for “9”, “47” for “48”
(§3) Whole cell lysates were prepared from U2OS and status of IκBα, p65, p-p65 (Ser536), and p-p100 (Ser 866/870) assessed by Western blotting as described in Mackenzie et al. (2007).[46]

[2] = tested on: IKKα-driven p100 phosphorylation in U2OS cells; test: FCS-stimulated p100 phosphorylation (Ser866/870) in U2OS cells, Western blot; type: cell-based, human; settings: 1 h pretreatment, FCS (10%) for 4 h, blots quantified, read-out: IC50 for inhibition of p100 phosphorylation
Procedure: as §1
(§4) Figure 9 Effect of compound 48 on (a) FCS-stimulated noncanonical and (b) TNF-α-induced canonical NF-kB activation in U2OS cells. Cells were pretreated with 48 1 h prior to stimulation with FCS (10%) for 4 h or TNF-α (10 ng/mL) for 30 min. Whole cell lysate were prepared, separated by SDS-PAGE, and assessed for (a) inhibition of p100 phosphorylation (Ser866/870) and (b) IkB-α and p-p65 (Ser536) status. […] The results are representative of three independent experiments.
as §4, with “10” for “9”, “47” for “48”
U2OS cells were cultured with McCoy’s 5A modified medium and MEF were cultured with DEME medium containing 10% (v/v) FCS and medium was changed every 2 d thereafter until cells became confluent. Cells were incubated at 37 °C in humidified air with 5% CO2 and rendered quiescent by serum deprivation for 24 h prior to stimulation in serum-free medium.
as §3

[3] = tested on: IKKβ-dependent p65 (Ser536) phosphorylation in U2OS cells; test: TNFα-induced p65 (Ser536) phosphorylation in U2OS cells, Western blot; type: cell-based, human; settings: highest concentration 100 μM, TNF-α (10 ng/mL) 30 min
Procedure: as §1, §2
as §2, with “10” for “9”, “47” for “48”
as §3

Rsk1(h) = target: T1, Rsk1(h) (Homo sapiens, UniProt Q15418); test: Millipore Kinase Profiler, single concentration; type: biochemical; settings: duplicate assay points, read-out: % residual activity
T1 construct: purchased Millipore KinaseProfiler
T1 sequence (Q15418 whole entry): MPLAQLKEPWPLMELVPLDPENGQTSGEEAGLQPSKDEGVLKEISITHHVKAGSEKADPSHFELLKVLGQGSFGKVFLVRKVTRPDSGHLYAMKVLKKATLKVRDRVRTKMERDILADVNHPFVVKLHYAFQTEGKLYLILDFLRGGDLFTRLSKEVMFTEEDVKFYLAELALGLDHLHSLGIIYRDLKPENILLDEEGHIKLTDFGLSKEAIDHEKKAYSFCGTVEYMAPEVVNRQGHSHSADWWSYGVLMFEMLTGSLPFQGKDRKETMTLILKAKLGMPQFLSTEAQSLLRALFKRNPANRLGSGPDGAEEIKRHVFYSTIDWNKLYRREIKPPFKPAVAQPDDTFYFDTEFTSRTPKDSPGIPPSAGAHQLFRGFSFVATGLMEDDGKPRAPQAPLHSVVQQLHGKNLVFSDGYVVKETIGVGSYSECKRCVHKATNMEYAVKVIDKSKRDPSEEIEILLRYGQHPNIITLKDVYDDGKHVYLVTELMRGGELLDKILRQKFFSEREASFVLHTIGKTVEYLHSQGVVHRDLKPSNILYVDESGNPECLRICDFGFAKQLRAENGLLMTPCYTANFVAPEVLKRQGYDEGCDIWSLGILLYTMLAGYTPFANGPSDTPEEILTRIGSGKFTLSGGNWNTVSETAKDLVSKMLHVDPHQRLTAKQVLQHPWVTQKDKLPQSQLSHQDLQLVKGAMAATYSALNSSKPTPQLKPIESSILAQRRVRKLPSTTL
From the text: (§5) Kinase profiling of compound 48 was outsourced to Millipore, specifically the Kinase Profiler Customer Service for single concentration studies using duplicate assay points.

LIMK1(h) = target: T2, LIMK1(h) (Homo sapiens, UniProt P53667); test: Millipore Kinase Profiler, single concentration; type: biochemical; settings: duplicate assay points, read-out: % residual activity
T2 construct: purchased Millipore KinaseProfiler
T2 sequence (P53667 whole entry): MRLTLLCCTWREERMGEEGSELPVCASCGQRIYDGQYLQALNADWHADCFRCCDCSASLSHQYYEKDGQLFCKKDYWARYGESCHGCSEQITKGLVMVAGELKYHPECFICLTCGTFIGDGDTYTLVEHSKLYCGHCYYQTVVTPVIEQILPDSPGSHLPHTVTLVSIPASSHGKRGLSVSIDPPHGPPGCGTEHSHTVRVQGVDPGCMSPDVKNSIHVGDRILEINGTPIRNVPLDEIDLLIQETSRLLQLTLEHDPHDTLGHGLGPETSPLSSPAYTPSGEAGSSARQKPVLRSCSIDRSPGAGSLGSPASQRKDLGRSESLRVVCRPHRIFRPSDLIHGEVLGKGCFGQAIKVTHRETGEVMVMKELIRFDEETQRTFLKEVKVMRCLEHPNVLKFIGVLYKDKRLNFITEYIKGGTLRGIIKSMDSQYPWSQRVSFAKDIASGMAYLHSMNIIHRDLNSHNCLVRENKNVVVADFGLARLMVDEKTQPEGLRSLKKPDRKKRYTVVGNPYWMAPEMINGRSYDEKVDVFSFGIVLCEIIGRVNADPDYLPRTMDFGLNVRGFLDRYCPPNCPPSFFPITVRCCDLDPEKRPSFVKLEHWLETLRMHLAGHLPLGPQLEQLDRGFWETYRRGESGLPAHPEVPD
From the text: as §5

TrkB(h) = target: T3, TrkB(h) (Homo sapiens, UniProt Q16620); test: Millipore Kinase Profiler, single concentration; type: biochemical; settings: duplicate assay points, read-out: % residual activity
T3 construct: purchased Millipore KinaseProfiler
T3 sequence (Q16620 32-822): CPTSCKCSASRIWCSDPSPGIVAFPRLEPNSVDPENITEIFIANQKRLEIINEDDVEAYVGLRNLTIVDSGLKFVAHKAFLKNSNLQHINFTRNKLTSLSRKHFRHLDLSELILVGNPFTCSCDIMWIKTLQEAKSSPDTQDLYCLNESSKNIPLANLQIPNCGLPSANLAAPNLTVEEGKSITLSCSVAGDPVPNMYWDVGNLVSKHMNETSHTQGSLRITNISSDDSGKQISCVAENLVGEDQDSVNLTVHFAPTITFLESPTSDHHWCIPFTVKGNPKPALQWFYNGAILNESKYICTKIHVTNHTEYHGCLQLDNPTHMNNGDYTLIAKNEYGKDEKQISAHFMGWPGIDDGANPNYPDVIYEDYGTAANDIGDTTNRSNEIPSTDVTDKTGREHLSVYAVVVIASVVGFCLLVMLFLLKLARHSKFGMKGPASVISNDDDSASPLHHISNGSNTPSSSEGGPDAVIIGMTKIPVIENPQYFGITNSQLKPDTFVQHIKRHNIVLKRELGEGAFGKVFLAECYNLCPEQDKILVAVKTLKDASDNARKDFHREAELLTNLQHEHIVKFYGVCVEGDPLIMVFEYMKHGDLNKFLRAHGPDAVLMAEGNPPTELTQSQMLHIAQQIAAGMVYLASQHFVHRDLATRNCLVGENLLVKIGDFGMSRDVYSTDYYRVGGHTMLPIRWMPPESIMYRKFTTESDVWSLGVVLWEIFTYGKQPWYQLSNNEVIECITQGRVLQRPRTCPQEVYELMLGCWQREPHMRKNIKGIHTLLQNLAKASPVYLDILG
From the text: as §5

MST2(h) = target: T4, MST2(h) (Homo sapiens, UniProt Q13188); test: Millipore Kinase Profiler, single concentration; type: biochemical; settings: duplicate assay points, read-out: % residual activity
T4 construct: purchased Millipore KinaseProfiler
T4 sequence (Q13188 whole entry): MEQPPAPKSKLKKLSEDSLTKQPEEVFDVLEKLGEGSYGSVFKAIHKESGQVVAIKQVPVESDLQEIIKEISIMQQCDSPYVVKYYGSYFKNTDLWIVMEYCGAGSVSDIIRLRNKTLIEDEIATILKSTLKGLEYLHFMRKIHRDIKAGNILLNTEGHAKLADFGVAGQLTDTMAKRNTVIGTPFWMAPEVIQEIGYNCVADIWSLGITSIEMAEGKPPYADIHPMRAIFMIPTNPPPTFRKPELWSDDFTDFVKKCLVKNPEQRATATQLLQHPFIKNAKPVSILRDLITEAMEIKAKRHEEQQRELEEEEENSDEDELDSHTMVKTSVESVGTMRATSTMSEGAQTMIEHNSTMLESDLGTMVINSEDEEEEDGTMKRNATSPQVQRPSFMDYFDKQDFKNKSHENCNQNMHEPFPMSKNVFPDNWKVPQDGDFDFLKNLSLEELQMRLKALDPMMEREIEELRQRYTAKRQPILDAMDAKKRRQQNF
From the text: as §5

CK1δ(h) = target: T5, CK1δ(h) (Homo sapiens, UniProt P48730); test: Millipore Kinase Profiler, single concentration; type: biochemical; settings: duplicate assay points, read-out: % residual activity
T5 construct: purchased Millipore KinaseProfiler
T5 sequence (P48730 whole entry): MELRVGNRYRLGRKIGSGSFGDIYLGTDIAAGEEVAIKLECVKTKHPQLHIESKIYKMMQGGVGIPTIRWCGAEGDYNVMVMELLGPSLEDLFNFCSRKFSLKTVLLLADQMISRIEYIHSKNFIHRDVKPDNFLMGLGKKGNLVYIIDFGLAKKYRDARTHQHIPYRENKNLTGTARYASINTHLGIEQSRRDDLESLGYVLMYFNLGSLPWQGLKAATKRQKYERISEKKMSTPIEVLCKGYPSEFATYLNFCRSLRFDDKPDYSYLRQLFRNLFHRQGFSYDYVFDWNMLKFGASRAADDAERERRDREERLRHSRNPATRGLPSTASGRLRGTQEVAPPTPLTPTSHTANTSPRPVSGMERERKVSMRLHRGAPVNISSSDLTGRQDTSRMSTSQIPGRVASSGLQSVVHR
From the text: as §5

c-RAF(h) = target: T6, c-RAF(h) (Homo sapiens, UniProt P04049); test: Millipore Kinase Profiler, single concentration; type: biochemical; settings: duplicate assay points, read-out: % residual activity
T6 construct: purchased Millipore KinaseProfiler
From the text: as §5

ZAP-70(h) = target: T7, ZAP-70(h) (Homo sapiens, UniProt P43403); test: Millipore Kinase Profiler, single concentration; type: biochemical; settings: duplicate assay points, read-out: % residual activity
T7 construct: purchased Millipore KinaseProfiler
T7 sequence (P43403 whole entry): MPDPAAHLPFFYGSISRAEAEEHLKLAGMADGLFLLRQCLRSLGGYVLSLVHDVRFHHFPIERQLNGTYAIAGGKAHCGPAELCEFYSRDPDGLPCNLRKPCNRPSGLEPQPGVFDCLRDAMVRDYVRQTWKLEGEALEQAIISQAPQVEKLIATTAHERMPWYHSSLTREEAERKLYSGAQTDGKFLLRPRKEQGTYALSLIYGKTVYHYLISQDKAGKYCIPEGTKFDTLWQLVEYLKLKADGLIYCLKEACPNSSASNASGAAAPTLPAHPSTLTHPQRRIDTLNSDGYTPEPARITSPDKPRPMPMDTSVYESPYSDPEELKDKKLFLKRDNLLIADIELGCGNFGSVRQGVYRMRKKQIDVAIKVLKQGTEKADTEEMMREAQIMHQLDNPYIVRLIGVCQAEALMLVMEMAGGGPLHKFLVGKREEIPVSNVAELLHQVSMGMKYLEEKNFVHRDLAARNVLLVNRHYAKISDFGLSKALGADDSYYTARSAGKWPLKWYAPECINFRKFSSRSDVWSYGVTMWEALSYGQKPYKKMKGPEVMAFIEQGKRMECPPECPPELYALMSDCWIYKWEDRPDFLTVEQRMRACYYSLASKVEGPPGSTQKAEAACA
From the text: as §5

PDGFRβ(h) = target: T8, PDGFRβ(h) (Homo sapiens, UniProt P09619); test: Millipore Kinase Profiler, single concentration; type: biochemical; settings: duplicate assay points, read-out: % residual activity
T8 construct: purchased Millipore KinaseProfiler
T8 sequence (P09619 33-1106): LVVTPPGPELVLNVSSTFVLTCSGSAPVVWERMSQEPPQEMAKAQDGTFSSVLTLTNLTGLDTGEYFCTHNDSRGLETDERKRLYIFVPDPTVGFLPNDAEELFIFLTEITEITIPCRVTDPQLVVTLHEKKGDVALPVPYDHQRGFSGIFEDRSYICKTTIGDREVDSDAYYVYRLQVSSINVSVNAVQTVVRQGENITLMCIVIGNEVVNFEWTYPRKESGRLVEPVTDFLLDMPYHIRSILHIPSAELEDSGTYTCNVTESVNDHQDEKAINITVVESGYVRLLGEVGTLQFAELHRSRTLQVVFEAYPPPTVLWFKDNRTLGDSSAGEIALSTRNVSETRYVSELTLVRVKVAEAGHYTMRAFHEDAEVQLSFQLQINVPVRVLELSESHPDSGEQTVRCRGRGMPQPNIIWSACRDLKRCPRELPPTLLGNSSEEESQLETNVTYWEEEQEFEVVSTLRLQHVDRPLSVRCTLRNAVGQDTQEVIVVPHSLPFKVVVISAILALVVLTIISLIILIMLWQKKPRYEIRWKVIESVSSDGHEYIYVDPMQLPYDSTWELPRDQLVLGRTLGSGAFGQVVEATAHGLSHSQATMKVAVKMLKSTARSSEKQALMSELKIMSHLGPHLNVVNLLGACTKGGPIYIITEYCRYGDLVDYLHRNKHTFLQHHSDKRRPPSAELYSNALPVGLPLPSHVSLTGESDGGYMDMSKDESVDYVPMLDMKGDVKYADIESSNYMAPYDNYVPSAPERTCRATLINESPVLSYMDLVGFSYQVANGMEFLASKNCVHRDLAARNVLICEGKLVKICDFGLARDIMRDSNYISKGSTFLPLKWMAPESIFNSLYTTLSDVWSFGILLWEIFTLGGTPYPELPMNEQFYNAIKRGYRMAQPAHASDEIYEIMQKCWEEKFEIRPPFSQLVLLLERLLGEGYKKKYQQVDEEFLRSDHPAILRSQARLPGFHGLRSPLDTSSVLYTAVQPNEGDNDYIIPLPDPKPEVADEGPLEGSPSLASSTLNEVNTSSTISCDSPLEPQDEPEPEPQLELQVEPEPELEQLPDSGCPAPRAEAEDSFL
From the text: as §5

Compound: N#Cc1c[nH]c2nc(N)nc(-c3ccc(S(N)(=O)=O)cc3)c12 [Compound 48, 4-(2-Amino-5-cyano-7H-pyrrolo[2,3-d]pyrimidin-4-yl)benzenesulfonamide]
- inhibition of TNFα-stimulated IκBα degradation [1]: inhibited; also recorded: small effect
- IC50 [2]: 5.8 µM
- IC50 ([2]; Homo sapiens, U2OS): 8.8 µM
- inhibition of TNFα-stimulated p65 (Ser536) phosphorylation [3]: inhibited; also recorded: small effect
- remaining activity at 10 µM (Rsk1(h)): 39%
- remaining activity at 10 µM (LIMK1(h)): 30%
- remaining activity at 10 µM (TrkB(h)): 31%
- remaining activity at 10 µM (MST2(h)): 59%
- remaining activity at 10 µM (CK1δ(h)): 4%
- remaining activity at 10 µM (c-RAF(h)): 37%
- remaining activity at 10 µM (ZAP-70(h)): 138%
- remaining activity at 10 µM (PDGFRβ(h)): 104%
